Converted amounts (≈) assume the structure as drawn.
Tests used:
[1] = In vitro antibacterial activity against gram-negative organism Pseudomonas aeruginosa DPHD-2862; format: functional; conditions: Pseudomonas aeruginosa; read-out: MIC
[2] = target: T1, DNA gyrase (Staphylococcus aureus) (UniProt P0A0K8+P20831); assay: In vitro antibacterial activity against gram-positive organism Staphylococcus aureus 1775; format: functional
[3] = In vitro antibacterial activity against gram-negative organism Pseudomonas aeruginosa 5007; format: functional; conditions: Pseudomonas aeruginosa; read-out: MIC
[4] = target: T1, DNA gyrase (Staphylococcus aureus); assay: In vitro antibacterial activity against gram-positive organism Staphylococcus aureus ATCC 6538p; format: functional
Streptococcus pyogenes = assay: In vitro antibacterial activity against gram-positive organism Streptococcus pyogenes EES61; format: functional; conditions: Streptococcus pyogenes; read-out: MIC
[5] = In vivo efficacy against Pseudomonas aeruginosa 5007 after subcutaneous administration; format: functional; conditions: Pseudomonas aeruginosa, sc; read-out: ED50
[6] = target: T1, DNA gyrase (Staphylococcus aureus); assay: In vivo efficacy against Staphylococcus aureus NCTC-10649M after subcutaneous administration; format: functional, organism-based
[7] = target: T2, DNA gyrase (Escherichia coli) (UniProt P0AES6+P0AES4); assay: In vitro antibacterial activity against gram-negative organism Klebsiella pneumoniae ATCC 8045; format: functional
[8] = target: T2, DNA gyrase (Escherichia coli); assay: In vitro antibacterial activity against gram-positive organism Streptococcus bovis A-5169; format: functional; conditions: Streptococcus equinus
[9] = target: T2, DNA gyrase (Escherichia coli); assay: In vitro antibacterial activity against gram-negative organism […] ATCC 13048; format: functional; conditions: Enterobacter aerogenes
[10] = target: T2, DNA gyrase (Escherichia coli); assay: In vivo efficacy against Escherichia coli JUHL after oral administration; format: functional, organism-based; conditions: Escherichia coli K-12
[11] = target: T2, DNA gyrase (Escherichia coli); conditions: Escherichia coli K-12
Description: Concentration which causes 50% of the gyrase (Escherichia coli H560)-mediated maximal DNA cleavage.

Pseudomonas aeruginosa = assay: In vivo efficacy against Pseudomonas aeruginosa 5007 following p.o. administration.
Streptococcus pneumoniae = assay: In vivo efficacy against Strep. administration; format: functional
[12] = target: T1, DNA gyrase (Staphylococcus aureus); assay: In vitro antibacterial activity against gram-positive organism Staphylococcus aureus NCTC-10649M; format: functional
[13] = target: T1, DNA gyrase (Staphylococcus aureus); assay: In vivo efficacy against Staphylococcus aureus NCTC-10649M after oral administration; format: functional, organism-based
[14] = target: T2, DNA gyrase (Escherichia coli); assay: In vitro antibacterial activity against gram-negative organism Prov. stuartii CMX-640; format: functional; conditions: Providencia stuartii
[15] = target: T2, DNA gyrase (Escherichia coli); assay: In vitro antibacterial activity against gram-positive organism Enterococcus faecium ATCC 8043; format: functional
[16] = target: T2, DNA gyrase (Escherichia coli); assay: In vivo efficacy against Escherichia coli JUHL by subcutaneous administration; format: functional, organism-based; conditions: Escherichia coli K-12
[17] = target: T2, DNA gyrase (Escherichia coli); assay: In vitro antibacterial against gram-negative organism Escherichia coli JUHL; format: functional; conditions: Escherichia coli K-12
Enterococcus faecalis = assay: Inhibitory activity against enterococcus faecalis Van B; format: functional
Enterococcus faecium = assay: Inhibitory activity against enterococcus faecium Van A; format: functional

T1 sequence (P0A0K8 2-644 limits assumed): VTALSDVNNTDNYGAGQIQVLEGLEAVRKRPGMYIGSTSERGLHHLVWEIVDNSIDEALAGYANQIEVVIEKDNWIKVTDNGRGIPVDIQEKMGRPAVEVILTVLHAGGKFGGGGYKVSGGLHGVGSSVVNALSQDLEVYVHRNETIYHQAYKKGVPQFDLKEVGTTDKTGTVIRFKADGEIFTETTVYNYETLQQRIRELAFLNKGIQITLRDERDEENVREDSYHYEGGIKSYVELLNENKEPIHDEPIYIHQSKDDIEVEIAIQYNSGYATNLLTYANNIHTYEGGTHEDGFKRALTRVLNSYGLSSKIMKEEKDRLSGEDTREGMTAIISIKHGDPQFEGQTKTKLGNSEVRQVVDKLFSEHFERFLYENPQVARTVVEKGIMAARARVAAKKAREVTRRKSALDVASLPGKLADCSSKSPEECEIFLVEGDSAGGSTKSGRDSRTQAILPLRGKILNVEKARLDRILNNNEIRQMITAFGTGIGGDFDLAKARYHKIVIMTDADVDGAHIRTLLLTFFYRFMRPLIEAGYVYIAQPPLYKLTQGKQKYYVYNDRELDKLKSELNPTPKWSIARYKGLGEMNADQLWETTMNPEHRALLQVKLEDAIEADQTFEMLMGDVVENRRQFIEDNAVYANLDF
T1 sequence (P20831 whole entry partner): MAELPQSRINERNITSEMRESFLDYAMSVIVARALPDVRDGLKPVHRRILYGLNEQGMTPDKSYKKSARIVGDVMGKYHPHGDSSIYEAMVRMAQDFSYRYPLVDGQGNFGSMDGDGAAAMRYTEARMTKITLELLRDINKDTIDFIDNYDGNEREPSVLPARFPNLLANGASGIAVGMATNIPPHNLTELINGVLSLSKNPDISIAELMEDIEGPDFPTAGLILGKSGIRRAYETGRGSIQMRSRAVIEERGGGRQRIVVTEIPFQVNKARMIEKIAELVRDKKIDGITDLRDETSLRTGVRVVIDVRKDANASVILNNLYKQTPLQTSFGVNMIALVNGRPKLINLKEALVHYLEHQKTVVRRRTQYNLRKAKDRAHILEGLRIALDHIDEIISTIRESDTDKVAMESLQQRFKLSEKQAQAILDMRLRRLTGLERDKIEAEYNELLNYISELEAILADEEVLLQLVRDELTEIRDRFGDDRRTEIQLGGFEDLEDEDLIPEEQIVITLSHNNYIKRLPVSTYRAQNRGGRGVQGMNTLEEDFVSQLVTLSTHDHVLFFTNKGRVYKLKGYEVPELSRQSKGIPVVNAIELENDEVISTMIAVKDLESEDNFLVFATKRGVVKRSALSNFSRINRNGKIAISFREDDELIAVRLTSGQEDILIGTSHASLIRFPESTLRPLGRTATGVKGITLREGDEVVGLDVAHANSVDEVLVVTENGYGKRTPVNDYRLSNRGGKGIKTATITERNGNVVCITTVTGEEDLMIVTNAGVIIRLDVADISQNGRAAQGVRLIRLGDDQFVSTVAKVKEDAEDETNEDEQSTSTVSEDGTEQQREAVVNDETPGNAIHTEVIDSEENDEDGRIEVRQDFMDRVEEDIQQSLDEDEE

Cc1c(N2C[C@@H]3[C@@H](N)[C@@H]3C2)c(F)cn2c(=O)c(C(=O)O)cc(C3CC3)c12
MIC [1]: 6.2 µg/mL (≈ 17.3 µM) | MIC [2]: 1.56 µg/mL (≈ 4.37 µM) | MIC [3]: 0.2 µg/mL (≈ 0.56 µM) | MIC [4]: 0.02 µg/mL (≈ 0.056 µM) | MIC (Streptococcus pyogenes): 0.1 µg/mL (≈ 0.28 µM) | ED50 [5]: 18 mg/kg | ED50 [6]: 4.1 mg/kg | MIC [7]: 0.01 µg/mL (≈ 0.028 µM) | MIC [8]: 0.1 µg/mL (≈ 0.28 µM) | MIC [9]: 0.02 µg/mL (≈ 0.056 µM) | ED50 [10]: > 10 mg/kg | CC50 [11]: 0.3 µg/mL (≈ 0.839 µM) | ED50 (Pseudomonas aeruginosa): > 50 mg/kg | ED50 (Streptococcus pneumoniae): 6.7 mg/kg | MIC [12]: 0.02 µg/mL (≈ 0.056 µM) | ED50 [13]: 14.6 mg/kg | MIC [14]: 0.78 µg/mL (≈ 2.18 µM) | MIC [15]: 0.1 µg/mL (≈ 0.28 µM) | ED50 [16]: 1.4 mg/kg | MIC [17]: 0.01 µg/mL (≈ 0.028 µM)

O=C(O)c1cc(C2CC2)c2cc(N3CCNCC3)c(F)cn2c1=O
MIC [1]: 25 µg/mL (≈ 75.4 µM) | MIC [2]: 50 µg/mL (≈ 151 µM) | MIC [3]: 0.39 µg/mL (≈ 1.18 µM) | MIC [4]: 0.2 µg/mL (≈ 0.604 µM) | MIC (Streptococcus pyogenes): 1.56 µg/mL (≈ 4.71 µM) | MIC [7]: 0.01 µg/mL (≈ 0.0302 µM) | MIC [8]: 3.1 µg/mL (≈ 9.36 µM) | MIC [9]: 0.05 µg/mL (≈ 0.151 µM) | CC50 [11]: 0.15 µg/mL (≈ 0.453 µM) | MIC [12]: 0.39 µg/mL (≈ 1.18 µM) | MIC [14]: 1.56 µg/mL (≈ 4.71 µM) | MIC [15]: 0.78 µg/mL (≈ 2.35 µM) | MIC [17]: 0.01 µg/mL (≈ 0.0302 µM)

Cc1c(N2C[C@@H]3CCCN[C@@H]3C2)c(F)cn2c(=O)c(C(=O)O)cc(C3CC3)c12 (stereo in doubt; 45n)
MIC [2]: 0.78 µg/mL (≈ 2.02 µM) | MIC [4]: 0.01 µg/mL (≈ 0.0259 µM) | ED50 [6]: 0.9 mg/kg | MIC [7]: 0.01 µg/mL (≈ 0.0259 µM) | MIC [8]: 0.05 µg/mL (≈ 0.13 µM) | MIC [9]: 0.05 µg/mL (≈ 0.13 µM) | ED50 [10]: 3.3 mg/kg | CC50 [11]: 0.3 µg/mL (≈ 0.778 µM) | ED50 (Pseudomonas aeruginosa): 36.4 mg/kg | MIC [12]: 0.02 µg/mL (≈ 0.0519 µM) | ED50 [13]: 3.1 mg/kg | MIC [14]: 0.78 µg/mL (≈ 2.02 µM) | MIC [15]: 0.1 µg/mL (≈ 0.259 µM) | ED50 [16]: 1 mg/kg | MIC [17]: 0.05 µg/mL (≈ 0.13 µM)

Cc1c(NCCN)c(F)cn2c(=O)c(C(=O)O)cc(C3CC3)c12
MIC [1]: 50 µg/mL (≈ 157 µM) | MIC [2]: > 100 µg/mL | MIC [3]: 0.78 µg/mL (≈ 2.44 µM) | MIC [4]: 0.78 µg/mL (≈ 2.44 µM) | MIC (Streptococcus pyogenes): 6.2 µg/mL (≈ 19.4 µM) | MIC [7]: 0.2 µg/mL (≈ 0.626 µM) | MIC [8]: 12.5 µg/mL (≈ 39.1 µM) | MIC [9]: 0.39 µg/mL (≈ 1.22 µM) | CC50 [11]: 0.8 µg/mL (≈ 2.51 µM) | MIC [12]: 1.56 µg/mL (≈ 4.89 µM) | MIC [14]: 6.2 µg/mL (≈ 19.4 µM) | MIC [15]: 3.1 µg/mL (≈ 9.71 µM) | MIC [17]: 0.2 µg/mL (≈ 0.626 µM)

CC(=O)N[C@H]1C[C@H](C)N(c2nc3c(-c4ccc(F)cc4F)cc(C(=O)O)c(=O)n3cc2F)C1
MIC [1]: > 100 µg/mL | MIC [2]: 25 µg/mL (≈ 54.3 µM) | MIC [3]: 3.1 µg/mL (≈ 6.73 µM) | MIC [4]: 0.1 µg/mL (≈ 0.217 µM) | MIC (Streptococcus pyogenes): 0.78 µg/mL (≈ 1.69 µM) | MIC [7]: 0.39 µg/mL (≈ 0.847 µM) | MIC [8]: 3.1 µg/mL (≈ 6.73 µM) | MIC [9]: 3.1 µg/mL (≈ 6.73 µM) | CC50 [11]: 1.3 µg/mL (≈ 2.82 µM) | MIC [12]: 0.2 µg/mL (≈ 0.434 µM) | MIC [14]: 25 µg/mL (≈ 54.3 µM) | MIC [15]: 1.56 µg/mL (≈ 3.39 µM) | MIC [17]: 0.78 µg/mL (≈ 1.69 µM)

Cc1c(N2C[C@@H]3CCCN[C@@H]3C2)c(F)cn2c(=O)c(C(=O)O)cc(C3CC3)c12 (stereo in doubt; (S,S)45n)
MIC [2]: 0.39 µg/mL (≈ 1.01 µM) | MIC [4]: 0.01 µg/mL (≈ 0.0259 µM) | ED50 [6]: 0.5 mg/kg | MIC [7]: 0.01 µg/mL (≈ 0.0259 µM) | MIC [8]: 0.05 µg/mL (≈ 0.13 µM) | MIC [9]: 0.02 µg/mL (≈ 0.0519 µM) | ED50 [10]: 1 mg/kg | ED50 (Pseudomonas aeruginosa): 21.4 mg/kg | MIC [12]: 0.01 µg/mL (≈ 0.0259 µM) | ED50 [13]: 2.5 mg/kg | MIC [14]: 0.39 µg/mL (≈ 1.01 µM) | MIC [15]: 0.1 µg/mL (≈ 0.259 µM) | MIC [17]: 0.005 µg/mL (≈ 0.013 µM)

Cc1c(N2CCC(CN)C2)c(F)cn2c(=O)c(C(=O)O)cc(C3CC3)c12 (configuration not stated)
MIC [1]: 1.56 µg/mL (≈ 4.34 µM) | MIC [2]: 0.39 µg/mL (≈ 1.09 µM) | MIC [3]: 0.1 µg/mL (≈ 0.278 µM) | MIC [4]: 0.002 µg/mL (≈ 0.00556 µM) | MIC (Streptococcus pyogenes): 0.002 µg/mL (≈ 0.00556 µM) | MIC (Enterococcus faecalis): 0.015 µg/mL (≈ 0.0417 µM) | MIC [7]: 0.005 µg/mL (≈ 0.0139 µM) | MIC [8]: 0.002 µg/mL (≈ 0.00556 µM) | MIC [9]: 0.01 µg/mL (≈ 0.0278 µM) | CC50 [11]: 0.05 µg/mL (≈ 0.139 µM) | MIC [12]: 0.002 µg/mL (≈ 0.00556 µM) | MIC (Enterococcus faecium): 0.03 µg/mL (≈ 0.0835 µM) | MIC [14]: 0.39 µg/mL (≈ 1.09 µM) | MIC [15]: 0.01 µg/mL (≈ 0.0278 µM) | MIC [17]: 0.005 µg/mL (≈ 0.0139 µM)

Cc1c(N2C[C@@H]3CCN[C@@H]3C2)c(F)cn2c(=O)c(C(=O)O)cc(C3CC3)c12 (stereo in doubt; (S,S)45o)
MIC [2]: 3.1 µg/mL (≈ 8.35 µM) | MIC [4]: 0.05 µg/mL (≈ 0.135 µM) | ED50 [6]: 1.5 mg/kg | MIC [7]: 0.01 µg/mL (≈ 0.0269 µM) | MIC [8]: 0.1 µg/mL (≈ 0.269 µM) | MIC [9]: 0.05 µg/mL (≈ 0.135 µM) | ED50 [10]: > 10 mg/kg | MIC [12]: 0.05 µg/mL (≈ 0.135 µM) | ED50 [13]: 5 mg/kg | MIC [14]: 0.39 µg/mL (≈ 1.05 µM) | MIC [15]: 0.1 µg/mL (≈ 0.269 µM) | ED50 [16]: 0.8 mg/kg | MIC [17]: 0.02 µg/mL (≈ 0.0538 µM)

Cl.O=C(O)c1cn(C2CC2)c2cc(N3CCNCC3)c(F)cc2c1=O [CIPROFLOXACIN HYDROCHLORIDE]
MIC [2]: > 100 µg/mL | MIC [4]: 0.2 µg/mL | MIC (Enterococcus faecalis): 1 µg/mL | MIC [12]: 0.39 µg/mL | MIC (Enterococcus faecium): 4 µg/mL

O=C(O)c1cc(C2CC2)c2nc(N3CCNCC3)c(F)cn2c1=O
MIC [1]: 100 µg/mL (≈ 301 µM) | MIC [2]: 50 µg/mL (≈ 150 µM) | MIC [3]: 0.39 µg/mL (≈ 1.17 µM) | MIC [4]: 0.78 µg/mL (≈ 2.35 µM) | MIC (Streptococcus pyogenes): 12.5 µg/mL (≈ 37.6 µM) | MIC [7]: 0.05 µg/mL (≈ 0.15 µM) | MIC [8]: 12.5 µg/mL (≈ 37.6 µM) | MIC [9]: 0.05 µg/mL (≈ 0.15 µM) | CC50 [11]: 2 µg/mL (≈ 6.02 µM) | MIC [12]: 1.56 µg/mL (≈ 4.69 µM) | MIC [14]: 12.5 µg/mL (≈ 37.6 µM) | MIC [15]: 12.5 µg/mL (≈ 37.6 µM) | MIC [17]: 0.05 µg/mL (≈ 0.15 µM)

CC(NC(=O)C(C)N[C@H]1C[C@H](C)N(c2nc3c(-c4ccc(F)cc4F)cc(C(=O)O)c(=O)n3cc2F)C1)C(=O)O (some centres not stated)
ED50 [6]: 11.4 mg/kg | ED50 [10]: 26.7 mg/kg | ED50 [13]: 25.3 mg/kg | ED50 [16]: 3.3 mg/kg
